Measurements as given in patent publication US20230095926A1, “PARASITE CONTROL IN RUMINANTS” (Intervet Inc., priority 2019, published 2023).

Tested on: cattle sucking lice (Haematopinus eurysternus, Linognathus vituli)
Test: Sucking lice efficacy study in cattle, natural infestation, single subcutaneous injection
Assay type: in vivo
Details: 1 mg/kg s.c.
Description: This study determined the efficacy (via reductions in total lice counts) of fluralaner in an injectable suspension formulation against natural infestations of cattle sucking (Haematopinus eurysternus, Linognathus vituli) and biting/chewing lice (Bovicola bovis) when applied at a single dose to young, lice infested cattle. Treatment efficacy was determined by whole body lice counts post treatment and comparison of treated and untreated (placebo) group mean lice counts. The naturally acquired louse infestations consisted of 2 species of sucking lice (Haematopinus eurysternus and Linognathus vituli) and the biting louse Bovicola bovis. Each animal was examined in a cattle crush prior to being selected from the parent mob to ensure that more than 30 sucking lice (combined total of both sucking lice species) were present. Fluralaner at a dose level of 1.0 mg/kg bw and Control Product were administered to cattle by subcutaneous injection. The numbers of live adults and live nymphs for each species of lice on each animal were counted at 7-day intervals starting with pre-treatment counts on Day −1 and post-treatment on Days 7, 14, 21, 28, 35, 42, 49 and 56.

Cc1cc(C2=NOC(c3cc(Cl)cc(Cl)c3)(C(F)(F)F)C2)ccc1C(=O)NCC(=O)NCC(F)(F)F (stereo not drawn) [Fluralaner, 4-[5-(3,5-dichlorophenyl)-5-trifluoromethyl-4,5-dihydroisoxazol-3-yl]-2-methyl-N-[(2,2,2-trifluoro-ethylcarbamoyl)-methyl]-benzamide]
efficacy (based on Arithmetic Means) against the sucking lice (Day 7): 97.69%
efficacy (based on Arithmetic Means) against the sucking lice (Day 14): 99.89%
lice found on treated cattle (from Day 21 until Day 56): no lice of any species found
